Where a name gives a salt, the structure may show the parent alone. Read-outs that look alike come from different tables or passages of the source.
Experiments:
[1] = test system: RSV (A2); test: viral yield reduction (growth inhibition) assay, RSV; format: cell-based, Respiratory Syncitial Virus; details: for IC50: human respiratory syncytial virus
Experimental: (§1) The compounds were tested for biological activity using viral yield reduction assays. Host cells (indicated as HF for human foreskin fibroblasts and as vero, the commonly used African green monkey cell line, in Tables 1 and 1a) were plated at 4 x 10^4 cells/well in cell growth medium with 2% fetal bovine serum or 2% calf serum in 96-well plates (0.1 ml/well) and incubated overnight. The compounds were added to individual wells to give final concentrations ranging from 50 to 0.1 µg/ml in two-fold concentration steps. After 1 hour, virus was added, and the incubation was continued for 4 days with RSV or CMV and for 2 days with HSV. At the end of the experiment, the amount of virus growth was quantitated and the yield reduction at various concentrations of compound was calculated. This allows estimation of the concentration of compound giving 50% reduction in virus growth (IC50).

[2] = test system: CMV (Ad169); test: viral yield reduction (growth inhibition) assay, CMV; format: cell-based, Cytomegalovirus; details: for Antiviral IC50 µg/ml CMV /HF: Table 1a; for IC50 µG/mL IN GROWTH […]/ HF: HF host cells
Experimental: as §1

[3] = test system: HSV1 (Patton); test: viral yield reduction (growth inhibition) assay, HSV; format: cell-based, Herpes Simplex Virus; details: for Antiviral IC50 µg/ml HSV Vero: Table 1a, format not given; for IC50 µG/mL IN GROWTH […]/ HF: HF host cells
Experimental: as §1

[4] = test system: CMV (Ad169); test: viral plaque reduction assay, CMV; format: cell-based, Cytomegalovirus; details: CMV (Ad169), HF host cells; for IC50: Human betaherpesvirus 5, read-out: IC50µG/mL IN PLAQUE ASSAY CMV/ HF
[5] = test system: RSV; test: viral plaque reduction assay, RSV; format: cell-based, Respiratory Syncitial Virus; details: RSV (A2), vero host cells
[6] = test system: RSV A2; format: in vivo, cotton rats; details: rat, in vivo
[7] = Table 1a, HF, yield reduction or plaque format not specified
[8] = HF host cells, read-out: IC50 µG/mL IN GROWTH […]/ HF
[9] = vero host cells, read-out: IC50 µG/mL IN GROWTH […]/ VERO
[10] = Human betaherpesvirus 5, HF host cells, read-out: IC50 µG/mL IN GROWTH […]/ HF

With “4',4-Bis-{4,6-bis-[3-(bis-carbamoylmethyl-1-sulfamoyl)-phenylamino]-[1,3,5]triazin-2-ylamino}-biphenyl-2,2'-dicarboxylic acid, disodium salt [Example 44]” the “Antiviral IC50 µg/ml RSV/ HF” value [1, 7] was 0.6 µg/mL, the “Antiviral IC50 µg/ml CMV /HF” value ([2]; HF, format not given) was 1.5 µg/mL and the “Antiviral IC50 µg/ml HSV Vero” value ([3]; HSV1 (Patton)) was 15 µg/mL.
“4,4'-Bis[4,6-di[3-aminophenyl-N,N-bis(2-carbamoyl-ethyl)sulfonylimino]-1,3,5-triazin-2-ylamino]-bibenzyl-2,2'-disulfonic acid, disodium salt [Example 11]” was tested, and the “IC50 µG/mL IN GROWTH […]/ HF” value ([1]; HF host cells) was 10 µg/mL, the “IC50 µG/mL IN GROWTH […]/ VERO” value ([1]; vero host cells) was 10 µg/mL and the “IC50 µG/mL IN GROWTH […]/ HF” value [2] was greater than 50 µg/mL.
For “4,4'-Bis[4,6-di[3-aminophenyl-N,N-bis(2-carbamoyl-ethyl)sulfonylimino]-1,3,5-triazin-2-yloxy]-biphenyl-2,2'-disulfonic acid, disodium salt [Example 19]”, the “IC50 µG/mL IN GROWTH […]/ HF” value ([1]; HF host cells) was 2 µg/mL, the “IC50 µG/mL IN GROWTH […]/ VERO” value ([1]; vero host cells) was 3 µg/mL and the “IC50 µG/mL IN GROWTH […]/ HF” value [2] was 12 µg/mL. For the same compound, the “IC50 µG/mL IN GROWTH […]/ HF” value ([3]; HSV1 (Patton)) was 30 µg/mL and the “IC50 µG/mL IN GROWTH […]/ VERO” value ([3]; HSV1 (Patton), vero host cells) was roughly 50 µg/mL.
“4,4'-Bis[4,6-di[3-aminophenyl-N,N-bis(2-hydroxyethyl)sulfonyliminol-1,3,5-triazin-2-ylamino]-biphenyl-2,2'-disulfonic acid, disodium salt [Example 22]” was tested, and the “IC50 µG/mL IN GROWTH […]/ HF” value ([1]; HF host cells) was 0.15 µg/mL, the “IC50 µG/mL IN GROWTH […]/ VERO” value ([1]; vero host cells) was 0.25 µg/mL and the “IC50 µG/mL IN GROWTH […]/ HF” value [2] was 4 µg/mL. For the same compound, the “IC50µG/mL IN PLAQUE ASSAY CMV/ HF” value [4] was 2 µg/mL.
“4,4'-Bis[4,6-di[3-aminophenyl-N,N-bis(3-hydroxypropyl)-sulfonylimino]-1,3,5-triazin-2-ylamino]-biphenyl-2,2'-disulfonic acid, disodium salt [Example 59]” was tested, and the “Antiviral IC50 µg/ml RSV/ HF” value [1, 7] was 0.5 µg/mL, the “Antiviral IC50 µg/ml CMV /HF” value ([2]; HF, format not given) was 4 µg/mL and the “Antiviral IC50 µg/ml HSV Vero” value ([3]; HSV1 (Patton)) was 20 µg/mL.
For “4,4'-Bis[4,6-di[4-amino-N'-[3-aminophenyl-N,N-bis(2-hydroxyethyl)sulfonylimino]-benzensulfonamide]-1,3,5-triazin-2-ylamino]-stilbene-2,2'-disulfonic acid, disodium salt [Example 25]”, the “IC50 µG/mL IN GROWTH […]/ VERO” value ([1]; vero host cells) was 30 µg/mL.
For “4,4'-Bis[4,6-di[4-aminophenyl-N,N-bis(2-carbamoyl-ethyl)sulfonylimino]-1,3,5-triazin-2-ylamino]-biphenyl-2,2'-disulfonic acid, disodium salt [Example 13]”, the “IC50 µG/mL IN GROWTH […]/ HF” value ([1]; HF host cells) was 8 µg/mL, the “IC50 µG/mL IN GROWTH […]/ VERO” value ([1]; vero host cells) was 8 µg/mL and the “IC50 µG/mL IN GROWTH […]/ HF” value [2] was 20 µg/mL. The “IC50 µG/mL IN GROWTH […]/ HF” value ([3]; HSV1 (Patton)) was 10 µg/mL and the “IC50 µG/mL IN GROWTH […]/ VERO” value ([3]; HSV1 (Patton), vero host cells) was 30 µg/mL.
“4,4'-Bis[4,6-di[4-aminophenyl-N,N-bis(2-carbamoyl-ethyl)sulfonylimino]-1,3,5-triazin-2-ylamino]-stilbene-2,2'-disulfonic acid, disodium salt [Example 12]” was tested, and the “IC50µG/mL IN PLAQUE ASSAY RSV/ VERO” value [5] was 8 µg/mL and the “IC50µG/mL IN PLAQUE ASSAY CMV/ HF” value [4] was 10 µg/mL.
For “4,4'-Bis[4-chloro-6-[3-aminophenyl-N,N-bis(2-carbamoylethyl)sulfonylimino]-1,3,5-triazin-2-ylamino]-stilbene-2,2'-disulphonic acid, disodium salt [Example 8]”, the “IC50 µG/mL IN GROWTH […]/ HF” value ([1]; HF host cells) was greater than 50 µg/mL, the “IC50 µG/mL IN GROWTH […]/ VERO” value ([1]; vero host cells) was greater than 50 µg/mL and the “IC50 µG/mL IN GROWTH […]/ HF” value [2] was greater than 50 µg/mL.
For “4,4'-Bis[4-chloro-6-di[4-amino-N'-[3-aminophenyl-N,N-bis(2-carbamoylethyl)sulfonylimino]-benzamide]-1,3,5-triazin-2-ylamino]-stilbene-2,2' -disulfonic acid, disodium salt [Example 24]”, the “IC50 µG/mL IN GROWTH […]/ VERO” value ([1]; vero host cells) was 50 µg/mL.
“4-[4,6-Di[3-aminophenyl-N,N-bis(2-carbamoylethyl)sulfonylimino]-1,3,5-triazin-2-ylamino]-4'-[4-[3-aminophenyl-N,N-bis(2-carbamoylethyl)sulfonylimino]-6-[3 -aminophenyl-N,N bis(3-propionic acid)]-1,3,5-triazin-2-ylamino]-stilbene-2,2'-disulphonic acid, disodium salt [Example 10]” was tested, and the “IC50 µG/mL IN GROWTH […]/ HF” value ([1]; HF host cells) was less than 3 µg/mL and the “IC50 µG/mL IN GROWTH […]/ VERO” value ([1]; vero host cells) was 0.7 µg/mL.
With “4-[4,6-Di[3-aminophenyl-N,N-bis(2-carbamoylethyl)sulfonylimino]-1,3,5-triazin-2-ylamino]-4'-[4-[3-aminophenyl-N,N-bis(2-carbamoylethyl)sulfonylimino]-6-[3 -aminophenyl-N-(2-carbamoylethyl)-N'-(3-propionic acid)]-1,3,5-triazin-2-ylamino]stilbene-2,2'-disulphonic acid, disodium salt [Example 9]” the “IC50 µG/mL IN GROWTH […]/ HF” value ([1]; HF host cells) was less than 3 µg/mL, the “IC50 µG/mL IN GROWTH […]/ VERO” value ([1]; vero host cells) was 0.4 µg/mL and the “IC50µG/mL IN PLAQUE ASSAY RSV/ VERO” value [5] was 0.3 µg/mL. For the same compound, the “IC50µG/mL IN PLAQUE ASSAY CMV/ HF” value [4] was 10 µg/mL.
With “4-[4,6-Di[3-aminophenyl-N,N-bis(2-carbamoylethyl)sulfonylimino]-1,3,5-triazin-2-ylamino]-4'-[4-chloro-6-[3-aminophenyl-N,N-bis(2-carbamoylethyl)sulfonylimino] -1,3,5-triazin-2-ylamino]-stilbene-2,2'-disulphonic acid, disodium salt [Example 7]” the “IC50 µG/mL IN GROWTH […]/ HF” value ([1]; HF host cells) was 0.7 µg/mL, the “IC50 µG/mL IN GROWTH […]/ VERO” value ([1]; vero host cells) was 1 µg/mL and the “IC50µG/mL IN PLAQUE ASSAY RSV/ VERO” value [5] was 0.8 µg/mL. The “IC50µG/mL IN PLAQUE ASSAY CMV/ HF” value [4] was 10 µg/mL.
“5,5'-Dimethyl-4,4'-bis[4,6-di[3-aminophenyl-N,N-bis(2-carbamoyl-ethyl)sulfonylimino]-1,3,5-triazin-2-ylamino]-biphenyl-2,2'-disulfonic acid, disodium salt [Example 20]” was tested, and the “IC50 µG/mL IN GROWTH […]/ HF” value ([1]; HF host cells) was 0.5 µg/mL and the “IC50 µG/mL IN GROWTH […]/ VERO” value ([3]; HSV1 (Patton), vero host cells) was 40 µg/mL.
With “9,9-Dioxo-2,7-Bis[4,6-di[3-aminophenyl-N,N-bis(2-carbamoylethyl)sulfonylimino]-1,3,5-triazin-2-ylamino]-dibenzothiophen-3,6-disulfonic acid, disodium salt [Example 23]” the “IC50µG/mL IN PLAQUE ASSAY RSV/ VERO” value [5] was 8 µg/mL and the “IC50µG/mL IN PLAQUE ASSAY CMV/ HF” value [4] was 20 µg/mL.
NC(=O)CCN(CCC(N)=O)S(=O)(=O)c1cccc(Nc2nc(Cl)nc(Nc3cccc(S(=O)(=O)N(CCC(N)=O)CCC(N)=O)c3)n2)c1 [Example 6, 2-Chloro-4,6-di[3-aminophenyl-N,N-bis(2-carbamoyl-ethyl)sulfonylimino]-1,3,5-triazine] showed an IC50 [1, 8] greater than 50 µg/mL, an IC50 [1, 9] greater than 50 µg/mL and an IC50 [2, 10] greater than 50 µg/mL.
Work on NS(=O)(=O)c1cccc(Nc2nc(Nc3cccc(S(N)(=O)=O)c3)nc(Nc3ccc(/C=C/c4ccc(Nc5nc(Nc6cccc(S(N)(=O)=O)c6)nc(Nc6cccc(S(N)(=O)=O)c6)n5)cc4S(=O)(=O)O)c(S(=O)(=O)O)c3)n2)c1 [Example 15, 4,4'-Bis[4,6-di[3-aminophenylsulphonylamido]-1,3,5-triazin-2-ylamino]-stilbene-2,2'-disulfonic acid, disodium salt] yielded an IC50 [1, 8] of 7 µg/mL, an IC50 [1, 9] greater than 8.3 µg/mL and an IC50 [2, 10] of 2 µg/mL. The IC50 [4] was 1 µg/mL.
In the case of NS(=O)(=O)c1cccc(Nc2nc(Nc3cccc(S(N)(=O)=O)c3)nc(Nc3ccc(-c4ccc(Nc5nc(Nc6cccc(S(N)(=O)=O)c6)nc(Nc6cccc(S(N)(=O)=O)c6)n5)cc4S(=O)(=O)O)c(S(=O)(=O)O)c3)n2)c1 [Example 16, 4,4'-Bis[4,6-di[3-aminophenylsylphonylimido]-1,3,5-triazin-2-ylamino]-biphenyl-2,2'-disulfonic acid, disodium salt], the IC50 [1, 8] was 5 µg/mL, the IC50 [1, 9] was roughly 8.3 µg/mL and the IC50 [2, 10] was 3 µg/mL. It also gave an IC50 [4] of 3 µg/mL.
O=S(=O)(O)c1cc(O)ccc1-c1ccc(O)cc1S(=O)(=O)O [Example 17, 4,4'-Dihydroxybiphenyl-2,2'-disulfonic acid] gave an IC50 [1, 8] greater than 50 µg/mL, an IC50 [1, 9] greater than 50 µg/mL and an IC50 ([3]; Human alphaherpesvirus 1, HSV1 (Patton), vero host cells, read-out: IC50 µG/mL IN GROWTH INHIBITION HSV/ VERO) greater than 50 µg/mL.
CC(O)CN(CC(C)O)S(=O)(=O)c1cccc(Nc2nc(Nc3cccc(S(=O)(=O)N(CC(C)O)CC(C)O)c3)nc(Nc3ccc(-c4ccc(Nc5nc(Nc6cccc(S(=O)(=O)N(CC(C)O)CC(C)O)c6)nc(Nc6cccc(S(=O)(=O)N(CC(C)O)CC(C)O)c6)n5)cc4C(=O)[O-])c(C(=O)[O-])c3)n2)c1.[Na+].[Na+] (stereo not drawn) [Example 41, 4,4'-Bis-(4,6-bis-{3-[bis-(2-hydroxy-propyl)-sulfamoyl]-phenylamino}-[1,3,5]triazin-2-ylamino)biphenyl-2,2'-dicarboxylic acid, disodium salt] gave an IC50 ([1]; Table 1a, HF, yield reduction or plaque format not specified, read-out: Antiviral IC50 µg/ml RSV/ HF) of 2 µg/mL, an IC50 ([2]; Human betaherpesvirus 5, Table 1a, HF, format not given, read-out: Antiviral IC50 µg/ml CMV /HF) of 8 µg/mL and an IC50 ([3]; Human alphaherpesvirus 1, Vero, read-out: Antiviral IC50 µg/ml HSV Vero) greater than 50 µg/mL.
For NC(=O)c1ncn([C@@H]2O[C@H](CO)[C@@H](O)[C@H]2O)n1 [Ribavirin, ribavirin, reference compound], the “Fold red. log10” value [6] was 0.8 log10 and the “Mean titer log10/g lung” value [6] was 3.3 log10/g lung.
